# Experimental data as given in patent US20100062993A1, “Adenosine Nucleotides as Dietary Supplements and as Agents in the Prevention of Cancer and the Metastasis Thereof” (priority 2008, published 2010).
# Test system: human cancer cell linings
# Assay: Mice implanted with human cancer (tumor) cell linings: efficacy of MTA relative to SAMe
# Format: in vivo
# From the text: It is therefore astonishing that MTA, in experimental results on mice implanted with tumor cell linings, was 10 times more efficacious than SAMe. Part of the pharmacodynamics is surely that MTA is toxic to many cancer cells that are deficient in the enzymes that are needed to process it. Yet this 10:1 efficacy ratio is inexplicable under the above suppositions!
# This is extremely surprising in light of the above!
smiles,measurement,setting,value
"CSC[C@H]1O[C@@H](n2cnc3c(N)ncnc32)[C@H](O)[C@@H]1O [MTA, 5-deoxy-5-methylthioadenosine]",efficacy relative to SAMe,"mice implanted with human cancer cell linings, ratio versus SAMe",more than 10 fold
same,efficacy of MTA relative to SAMe (times more efficacious),"mice implanted with tumor cell linings, ratio versus SAMe (10:1)",10 times
